Data: the NIST ThermoML archive (doi:10.1021/je9001575)

Experiment: molar heat capacity at constant volume
Details: Liquid, Vacuum adiabatic calorimetry

CC(C)C [2-methylpropane]
Details | molar heat capacity at constant volume [J/K/mol]
119.82 K, 6500 kPa | 71.22
122.33 K, 10732 kPa | 71.61
124.97 K, 15325 kPa | 72.14
127.43 K, 20667 kPa | 72.63
130.02 K, 25536 kPa | 73.32
132.43 K, 28973 kPa | 73.82
141.37 K, 4922 kPa | 73.32
143.72 K, 9088 kPa | 73.74
146.26 K, 13401 kPa | 74.25
148.59 K, 17196 kPa | 74.72
151.09 K, 21305 kPa | 75.18
153.38 K, 24872 kPa | 75.69
155.84 K, 28673 kPa | 76.28
162.3 K, 4549 kPa | 75.71
164.6 K, 8126 kPa | 76.26
167.03 K, 11587 kPa | 76.59
169.29 K, 14798 kPa | 77.08
171.69 K, 18296 kPa | 77.43
173.93 K, 21461 kPa | 78.06
176.29 K, 24825 kPa | 78.43
178.5 K, 27869 kPa | 78.99
180.83 K, 31062 kPa | 79.8
183.24 K, 4049 kPa | 78.07
185.45 K, 6869 kPa | 78.63
187.83 K, 9994 kPa | 79.02
190.01 K, 12743 kPa | 79.62
192.38 K, 15769 kPa | 79.81
194.51 K, 18415 kPa | 80.61
196.86 K, 21369 kPa | 81.16
198.97 K, 23939 kPa | 81.69
201.31 K, 26822 kPa | 81.98
203.38 K, 29282 kPa | 82.49
203.62 K, 3700 kPa | 80.96
205.69 K, 32085 kPa | 83.13
205.82 K, 6192 kPa | 81.19
208.09 K, 8785 kPa | 82.04
210.26 K, 11205 kPa | 82.36
212.53 K, 13758 kPa | 83
214.66 K, 16095 kPa | 83.42
216.92 K, 18597 kPa | 83.89
219.02 K, 20866 kPa | 84.44
221.26 K, 23313 kPa | 85
223.33 K, 25507 kPa | 85.63
224.21 K, 3209 kPa | 84.09
225.57 K, 27916 kPa | 85.85
226.5 K, 5490 kPa | 84.53
227.6 K, 30036 kPa | 86.44
228.59 K, 7563 kPa | 85.18
229.83 K, 32388 kPa | 86.73
230.86 K, 9783 kPa | 85.57
232.95 K, 11833 kPa | 86.15
235.18 K, 13991 kPa | 86.65
237.26 K, 16001 kPa | 87.31
239.46 K, 18103 kPa | 87.79
241.54 K, 20084 kPa | 88.35
243.72 K, 22131 kPa | 88.62
244.91 K, 2940 kPa | 87.7
245.77 K, 24074 kPa | 89.4
246.88 K, 4626 kPa | 88.13
247.92 K, 26062 kPa | 89.81
249.24 K, 6667 kPa | 88.84
249.98 K, 27977 kPa | 90.18
251.17 K, 8311 kPa | 89.23
252.11 K, 29918 kPa | 91.01
253.54 K, 10334 kPa | 89.74
254.15 K, 31797 kPa | 91.18
255.44 K, 11931 kPa | 90.33
257.8 K, 13926 kPa | 90.58
259.68 K, 15488 kPa | 91.3
262.03 K, 17452 kPa | 91.98
263.88 K, 18974 kPa | 92.4
264.62 K, 2580 kPa | 91.58
266.23 K, 20919 kPa | 93.11
266.61 K, 4054 kPa | 92.14
268.06 K, 22404 kPa | 93.8
268.91 K, 5781 kPa | 92.42
270.4 K, 24318 kPa | 94.15
270.88 K, 7235 kPa | 92.99
272.22 K, 25772 kPa | 94.9
273.17 K, 8940 kPa | 93.07
274.56 K, 27659 kPa | 95.07
275.12 K, 10363 kPa | 94.06
276.36 K, 29087 kPa | 95.35
277.4 K, 12047 kPa | 94.2
278.68 K, 30942 kPa | 95.99
279.34 K, 13450 kPa | 95.2
280.46 K, 32342 kPa | 96.46
281.62 K, 15113 kPa | 95.82
283.54 K, 16491 kPa | 96.18
283.66 K, 2372 kPa | 95.67
285.76 K, 3730 kPa | 96.28
285.81 K, 18136 kPa | 97.4
287.72 K, 19487 kPa | 97.22
287.93 K, 5135 kPa | 96.68
289.99 K, 21118 kPa | 98.16
290.04 K, 6483 kPa | 97.37
291.87 K, 22438 kPa | 98.44
292.18 K, 7863 kPa | 98.07
294.14 K, 24048 kPa | 99.1
294.3 K, 9205 kPa | 98
296.01 K, 25350 kPa | 99.94
296.42 K, 10563 kPa | 98.75
298.28 K, 26943 kPa | 99.99
298.53 K, 11894 kPa | 98.97
300.14 K, 28222 kPa | 100.48
300.64 K, 13229 kPa | 100.03
302.39 K, 29793 kPa | 100.74
302.75 K, 14551 kPa | 100.42
303.81 K, 2271 kPa | 99.83
304.25 K, 31058 kPa | 101.52
304.85 K, 15868 kPa | 101.01
306.07 K, 3504 kPa | 100.71
306.5 K, 32612 kPa | 102.04
306.98 K, 17187 kPa | 101.25
308.12 K, 4631 kPa | 100.8
309.04 K, 18478 kPa | 102.38
310.38 K, 5860 kPa | 101.98
311.17 K, 19783 kPa | 102.14
312.42 K, 6973 kPa | 101.82
312.62 K, 2143 kPa | 102.01
313.23 K, 21063 kPa | 102.98
314.68 K, 8197 kPa | 102.64
314.81 K, 3247 kPa | 102.19
315.35 K, 22355 kPa | 103.37
316.7 K, 9293 kPa | 102.97
316.95 K, 4329 kPa | 103.28
317.39 K, 23611 kPa | 103.51
318.98 K, 10517 kPa | 103.88
319.15 K, 5436 kPa | 103.12
319.53 K, 24899 kPa | 104.29
320.98 K, 11596 kPa | 104.6
321.27 K, 6508 kPa | 104.19
321.55 K, 26133 kPa | 104.78
322.43 K, 2027 kPa | 103.88
323.27 K, 12819 kPa | 104.79
323.48 K, 7612 kPa | 104.96
323.69 K, 27412 kPa | 105.09
324.79 K, 3113 kPa | 105.07
325.25 K, 13880 kPa | 105.73
325.59 K, 8668 kPa | 104.99
325.7 K, 28633 kPa | 106.08
326.81 K, 4037 kPa | 105.22
327.54 K, 15099 kPa | 105.76
327.82 K, 9782 kPa | 105.71
327.84 K, 29902 kPa | 106.3
329.14 K, 5110 kPa | 105.78
329.51 K, 16147 kPa | 106.45
329.84 K, 31107 kPa | 106.78
329.89 K, 10815 kPa | 106.1
331.17 K, 6040 kPa | 106.74
331.81 K, 17362 kPa | 106.57
331.98 K, 32367 kPa | 107.91
332.14 K, 11928 kPa | 106.39
333.49 K, 7102 kPa | 106.91
333.76 K, 18392 kPa | 107.16
333.97 K, 33555 kPa | 107.88
334.19 K, 12947 kPa | 107.66
335.53 K, 8034 kPa | 107.69
336.06 K, 19603 kPa | 107.61
336.45 K, 14061 kPa | 107.61
337.84 K, 9085 kPa | 108.12
338 K, 20617 kPa | 108.51
338.49 K, 15066 kPa | 108.51
339.89 K, 10016 kPa | 108.49
340.31 K, 21824 kPa | 108.42
340.75 K, 16177 kPa | 108.82
342.19 K, 11067 kPa | 108.69
342.23 K, 22826 kPa | 110.23
342.77 K, 17169 kPa | 109.53
344.24 K, 11989 kPa | 109.21
344.55 K, 24029 kPa | 109.59
